In the NIST ThermoML archive (doi:10.1016/j.fluid.2017.11.013):
Values joined by “and” are separate entries in the source; they are usually repeats but may differ in a detail not shown here. Equal values may be shown once. ± gives the expanded uncertainty stated by the source.

Details: Fluid (supercritical or subcritical phases), Coaxial cylinder method

C=C [ethene]
Details	thermal conductivity
285.04 K, 6160 kPa	0.06936 ± 0.0027 W/m/K
285.04 K, 6760 kPa	0.07168 ± 0.0028 W/m/K
285.04 K, 7250 kPa	0.07341 ± 0.0028 W/m/K
285.04 K, 8160 kPa	0.07598 ± 0.0029 W/m/K
285.04 K, 9010 kPa	0.07839 ± 0.003 W/m/K
285.04 K, 9690 kPa	0.0804 ± 0.003 W/m/K
285.04 K, 9800 kPa	0.08072 ± 0.0031 W/m/K
285.04 K, 9810 kPa	0.08067 ± 0.0031 W/m/K
285.04 K, 9830 kPa	0.0807 ± 0.0031 W/m/K
285.04 K, 9850 kPa	0.08058 ± 0.003 W/m/K
285.04 K, 9900 kPa	0.08077 ± 0.0031 W/m/K
285.04 K, 9920 kPa	0.08085 ± 0.0031 W/m/K
285.04 K, 9950 kPa	0.08076 ± 0.0031 W/m/K and 0.08065 ± 0.0031 W/m/K
285.04 K, 10000 kPa	0.08079 ± 0.0031 W/m/K
285.04 K, 10180 kPa	0.08121 ± 0.0031 W/m/K
285.04 K, 10350 kPa	0.08166 ± 0.0031 W/m/K
285.04 K, 10570 kPa	0.08194 ± 0.0031 W/m/K
288.24 K, 4580 kPa	0.03085 ± 0.0015 W/m/K
288.24 K, 5100 kPa	0.03767 ± 0.0017 W/m/K
288.24 K, 5360 kPa	0.04634 ± 0.002 W/m/K
288.24 K, 5510 kPa	0.05465 ± 0.0022 W/m/K
288.24 K, 5570 kPa	0.06007 ± 0.0024 W/m/K
288.24 K, 5630 kPa	0.06943 ± 0.0027 W/m/K
288.24 K, 5680 kPa	0.07371 ± 0.0028 W/m/K
288.24 K, 5790 kPa	0.0746 ± 0.0029 W/m/K
288.24 K, 5920 kPa	0.06841 ± 0.0027 W/m/K
288.24 K, 6000 kPa	0.06651 ± 0.0026 W/m/K
288.24 K, 6240 kPa	0.06542 ± 0.0026 W/m/K
288.24 K, 6570 kPa	0.06758 ± 0.0026 W/m/K
288.24 K, 7140 kPa	0.06951 ± 0.0027 W/m/K
294.62 K, 5100 kPa	0.03346 ± 0.0015 W/m/K
294.62 K, 5370 kPa	0.03618 ± 0.0016 W/m/K
294.62 K, 6200 kPa	0.05841 ± 0.0023 W/m/K
294.62 K, 6290 kPa	0.06125 ± 0.0024 W/m/K
294.62 K, 6530 kPa	0.06505 ± 0.0025 W/m/K
294.62 K, 6690 kPa	0.066 ± 0.0026 W/m/K
294.62 K, 6770 kPa	0.06592 ± 0.0026 W/m/K
294.62 K, 6870 kPa	0.06592 ± 0.0026 W/m/K
294.62 K, 6950 kPa	0.06591 ± 0.0026 W/m/K
294.62 K, 7030 kPa	0.0659 ± 0.0026 W/m/K
294.62 K, 7130 kPa	0.06589 ± 0.0026 W/m/K
294.62 K, 7360 kPa	0.06665 ± 0.0026 W/m/K
294.62 K, 7490 kPa	0.06627 ± 0.0026 W/m/K
294.62 K, 7670 kPa	0.06623 ± 0.0026 W/m/K
294.62 K, 7690 kPa	0.06625 ± 0.0026 W/m/K
294.62 K, 8210 kPa	0.06804 ± 0.0026 W/m/K
294.62 K, 8570 kPa	0.06916 ± 0.0027 W/m/K
294.62 K, 9220 kPa	0.07111 ± 0.0027 W/m/K
294.62 K, 9740 kPa	0.07276 ± 0.0028 W/m/K
294.62 K, 10280 kPa	0.07482 ± 0.0029 W/m/K
294.62 K, 10840 kPa	0.07574 ± 0.0029 W/m/K
301.6 K, 1010 kPa	0.02196 ± 0.0012 W/m/K
301.6 K, 1900 kPa	0.02294 ± 0.0012 W/m/K
301.6 K, 2940 kPa	0.02469 ± 0.0013 W/m/K
301.6 K, 3920 kPa	0.02736 ± 0.0014 W/m/K
301.6 K, 5010 kPa	0.03136 ± 0.0015 W/m/K
301.6 K, 5560 kPa	0.0359 ± 0.0016 W/m/K
301.6 K, 5610 kPa	0.03586 ± 0.0016 W/m/K
301.6 K, 6120 kPa	0.0417 ± 0.0018 W/m/K and 0.04209 ± 0.0018 W/m/K
301.6 K, 6550 kPa	0.0488 ± 0.002 W/m/K
301.6 K, 6780 kPa	0.05244 ± 0.0022 W/m/K
301.6 K, 6930 kPa	0.05667 ± 0.0023 W/m/K
301.6 K, 7100 kPa	0.05988 ± 0.0024 W/m/K
